Laboratory results published in ChEMBL document CHEMBL1141234, “Synthesis and SAR of highly potent dual 5-HT1A and 5-HT1B antagonists as potential antidepressant drugs” (Bioorg Med Chem Lett, 2005).
pIC50, pKi: −log10 of the molar value.

Assays:
[1] = Oral bioavailability in rat at 10 mg/kg, po; type: ADME, organism-based; conditions: in vivo
[2] = biological target: T1, 5-hydroxytryptamine receptor 1A (Homo sapiens) (UniProt P08908); test: Intrinsic activity for 5HT1A receptor in [35S]GTP-gamma-S assay; type: functional
T1 sequence (whole entry): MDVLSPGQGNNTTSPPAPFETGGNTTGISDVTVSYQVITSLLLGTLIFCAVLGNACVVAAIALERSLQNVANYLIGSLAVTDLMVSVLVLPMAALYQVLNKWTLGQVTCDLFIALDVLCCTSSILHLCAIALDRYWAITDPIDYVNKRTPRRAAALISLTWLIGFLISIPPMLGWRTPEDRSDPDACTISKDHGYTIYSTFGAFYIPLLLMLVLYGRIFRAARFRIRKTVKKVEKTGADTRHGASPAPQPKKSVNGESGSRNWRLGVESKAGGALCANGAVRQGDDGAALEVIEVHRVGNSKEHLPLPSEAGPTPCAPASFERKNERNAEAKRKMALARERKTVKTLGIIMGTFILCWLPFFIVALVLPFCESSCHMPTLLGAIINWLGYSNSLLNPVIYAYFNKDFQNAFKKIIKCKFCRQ

Rattus norvegicus = organism: Rattus norvegicus; test: Electrically stimulated [3H]5-HT release from rat brain cortical slices at 1 uM; type: functional, tissue-based
[3] = biological target: 5-hydroxytryptamine receptor 1B (Homo sapiens, UniProt P28222); test: Inhibitory activity against human recombinant 5HT1B receptor co-expressed with G-protein chimera Gqo5 in HEK293 cells by FLIPR; type: functional, cell-based
Chain of 5-hydroxytryptamine receptor 1B (P28222 whole entry): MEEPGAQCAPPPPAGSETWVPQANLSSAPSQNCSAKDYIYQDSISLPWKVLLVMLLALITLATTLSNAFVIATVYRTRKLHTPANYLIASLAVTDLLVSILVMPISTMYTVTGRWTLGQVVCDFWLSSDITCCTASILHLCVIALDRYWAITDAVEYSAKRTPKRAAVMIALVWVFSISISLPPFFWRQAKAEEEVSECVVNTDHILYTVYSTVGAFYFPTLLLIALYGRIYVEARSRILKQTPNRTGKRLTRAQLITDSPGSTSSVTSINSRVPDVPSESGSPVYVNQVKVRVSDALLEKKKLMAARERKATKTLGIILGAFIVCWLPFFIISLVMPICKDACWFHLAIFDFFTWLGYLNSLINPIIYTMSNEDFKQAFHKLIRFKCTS

[4] = biological target: 5-hydroxytryptamine receptor 7 (Homo sapiens, UniProt P34969); test: Inhibitory activity against 5HT7 receptor
Chain of 5-hydroxytryptamine receptor 7 (P34969 whole entry): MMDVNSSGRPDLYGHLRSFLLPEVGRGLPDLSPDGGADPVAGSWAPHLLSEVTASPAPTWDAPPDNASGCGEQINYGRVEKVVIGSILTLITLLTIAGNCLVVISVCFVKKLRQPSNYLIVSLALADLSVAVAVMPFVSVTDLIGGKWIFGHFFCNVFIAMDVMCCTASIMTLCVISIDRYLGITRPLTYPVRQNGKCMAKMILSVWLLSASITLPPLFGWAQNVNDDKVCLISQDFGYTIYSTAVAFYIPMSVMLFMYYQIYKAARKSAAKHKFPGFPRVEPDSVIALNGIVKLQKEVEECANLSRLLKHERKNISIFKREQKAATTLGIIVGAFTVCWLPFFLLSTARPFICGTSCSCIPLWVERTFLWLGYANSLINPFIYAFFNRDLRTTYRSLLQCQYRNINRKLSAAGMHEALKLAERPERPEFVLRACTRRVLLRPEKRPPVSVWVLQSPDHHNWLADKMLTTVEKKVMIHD

[5] = biological target: T2, Adrenergic receptor alpha-1 (Homo sapiens, UniProt P35348+P25100+P35368); test: Inhibitory activity against Adrenergic alpha-1 receptor; type: protein assay
T2 sequence (P35348 whole entry): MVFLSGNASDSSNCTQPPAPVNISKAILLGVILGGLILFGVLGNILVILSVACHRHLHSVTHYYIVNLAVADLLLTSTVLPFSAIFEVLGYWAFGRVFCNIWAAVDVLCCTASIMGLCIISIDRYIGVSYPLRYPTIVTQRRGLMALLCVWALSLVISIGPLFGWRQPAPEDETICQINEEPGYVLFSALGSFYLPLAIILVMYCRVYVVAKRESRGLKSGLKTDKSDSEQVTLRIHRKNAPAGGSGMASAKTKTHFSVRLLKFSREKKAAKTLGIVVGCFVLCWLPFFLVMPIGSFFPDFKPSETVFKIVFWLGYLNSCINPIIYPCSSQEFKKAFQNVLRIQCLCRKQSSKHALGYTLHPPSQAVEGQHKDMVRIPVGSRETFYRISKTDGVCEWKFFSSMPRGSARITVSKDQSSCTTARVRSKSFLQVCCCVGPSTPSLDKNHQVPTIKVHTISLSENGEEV
T2 sequence (P25100 whole entry): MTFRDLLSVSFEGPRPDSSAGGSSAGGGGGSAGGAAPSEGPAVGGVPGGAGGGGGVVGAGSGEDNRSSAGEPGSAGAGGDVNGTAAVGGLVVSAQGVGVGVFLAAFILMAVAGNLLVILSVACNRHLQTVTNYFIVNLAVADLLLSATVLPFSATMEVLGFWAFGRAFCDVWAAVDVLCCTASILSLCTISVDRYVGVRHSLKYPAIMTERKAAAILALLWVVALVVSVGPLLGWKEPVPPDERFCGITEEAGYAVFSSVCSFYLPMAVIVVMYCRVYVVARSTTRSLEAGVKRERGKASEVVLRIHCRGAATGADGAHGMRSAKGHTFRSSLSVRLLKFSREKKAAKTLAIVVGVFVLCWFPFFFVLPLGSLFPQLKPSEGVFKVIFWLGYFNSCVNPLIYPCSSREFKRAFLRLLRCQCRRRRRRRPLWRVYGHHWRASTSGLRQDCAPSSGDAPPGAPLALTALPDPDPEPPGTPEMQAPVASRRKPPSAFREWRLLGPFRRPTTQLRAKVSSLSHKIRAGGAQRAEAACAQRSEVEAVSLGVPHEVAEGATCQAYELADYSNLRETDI
T2 sequence (P35368 whole entry): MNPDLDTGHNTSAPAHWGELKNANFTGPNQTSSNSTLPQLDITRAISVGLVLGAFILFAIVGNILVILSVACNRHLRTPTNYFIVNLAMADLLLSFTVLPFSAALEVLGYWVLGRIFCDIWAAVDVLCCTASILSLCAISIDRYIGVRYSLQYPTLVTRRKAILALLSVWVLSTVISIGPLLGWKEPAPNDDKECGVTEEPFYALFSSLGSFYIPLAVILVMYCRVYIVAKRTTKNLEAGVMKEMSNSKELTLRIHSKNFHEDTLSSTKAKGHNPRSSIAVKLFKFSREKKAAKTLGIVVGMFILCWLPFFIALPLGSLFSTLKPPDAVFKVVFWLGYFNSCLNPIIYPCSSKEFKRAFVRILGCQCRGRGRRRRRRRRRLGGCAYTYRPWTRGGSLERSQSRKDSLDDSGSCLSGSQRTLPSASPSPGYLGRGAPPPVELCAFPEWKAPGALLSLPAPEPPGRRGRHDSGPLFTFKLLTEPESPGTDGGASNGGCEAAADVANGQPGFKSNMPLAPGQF

CN1CCc2c(sc3ncn(CCN4CCN(c5cncc6ccccc56)CC4)c(=O)c23)C1
bioavailability [1]: 11%
Emax [2]: 4%
Activity (Rattus norvegicus): Dose-dependent effect
pIC50 [3]: 7.46
pKi [3]: 8.60
pKi [4]: 6.28
Ki [5]: 13.7 nM
